According to publication PMC6592620 (Biochemistry, 2018):

Molecular target: phiYFP (yellow fluorescent protein from the jellyfish Phialidium sp.) (Phialidium sp. SL-2003, UniProt Q6RYS7)
Test: fluorescence titration, single site binding model

With I [iodide] the Kd was 50 ± 2 mM.
